From article PMC2699545 (Molecular genetics and metabolism, 2009)
Numbering of substitutions follows the chain as printed. Each block holds one molecule with its values, some of them ahead of it.

Tests used:
[1] = molecular target: T1, N370D GCase (Homo sapiens, UniProt P04062, N409D); assay: GCase inhibition by active site-directed inhibitors, 4MU-Glc substrate; assay type: biochemical
T1 sequence (P04062 40-536 N409D): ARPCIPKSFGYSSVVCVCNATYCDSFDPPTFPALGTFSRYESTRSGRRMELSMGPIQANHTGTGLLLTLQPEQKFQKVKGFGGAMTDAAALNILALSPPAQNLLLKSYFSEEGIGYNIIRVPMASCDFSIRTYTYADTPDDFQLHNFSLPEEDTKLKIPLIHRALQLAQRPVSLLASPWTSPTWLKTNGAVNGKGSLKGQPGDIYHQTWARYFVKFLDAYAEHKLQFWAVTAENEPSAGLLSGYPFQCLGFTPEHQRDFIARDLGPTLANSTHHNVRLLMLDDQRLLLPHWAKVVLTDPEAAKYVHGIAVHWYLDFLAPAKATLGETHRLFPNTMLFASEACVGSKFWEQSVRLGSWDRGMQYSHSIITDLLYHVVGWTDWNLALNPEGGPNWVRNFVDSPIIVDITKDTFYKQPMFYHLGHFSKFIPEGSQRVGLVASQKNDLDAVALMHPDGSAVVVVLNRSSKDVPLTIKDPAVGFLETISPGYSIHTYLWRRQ

[2] = molecular target: T2, N370S GCase (Homo sapiens, UniProt P04062, N409S); assay: as above; assay type: biochemical
T2 sequence (P04062 40-536 N409S): T1 sequence (P04062 40-536 N409D) with D370S

[3] = molecular target: T3, N370 (wild-type) GCase (Homo sapiens, UniProt P04062); assay: as above; assay type: biochemical
T3 sequence (P04062 40-536): T1 sequence (P04062 40-536 N409D) with D370N

[4] = molecular target: T4, N370E GCase (Homo sapiens, UniProt P04062, N409E); assay: as above; assay type: biochemical
T4 sequence (P04062 40-536 N409E): T1 sequence (P04062 40-536 N409D) with D370E

[5] = molecular target: T5, N370Q GCase (Homo sapiens, UniProt P04062, N409Q); assay: as above; assay type: biochemical
T5 sequence (P04062 40-536 N409Q): T1 sequence (P04062 40-536 N409D) with D370Q

[6] = molecular target: T6, E235G GCase (Homo sapiens, UniProt P04062, E274G); assay: E235G hydrolysis of alternative substrates, with or without azide; assay type: biochemical; details: for E235G activity toward substrate compared to wild-type enzyme: TC (4.25 mM) as activator, no azide
T6 sequence (P04062 40-536 E274G): T1 sequence (P04062 40-536 N409D) with E235G, D370N

[7] = test system: all active enzymes (wild-type and mutant GCases); assay: Km for 4MU-Glc from Lineweaver-Burk plots; assay type: biochemical, human
[8] = test system: N370, N370D, N370E and N370S enzymes; assay: Km for DNPG; assay type: biochemical, human; details: same for all the mutants (Fig. 4 legend)
[9] = molecular target: T2, N370S GCase; assay: Enzyme activation by TC or saposin C
[10] = molecular target: T3, N370 (wild-type) GCase; assay: Enzyme activation by TC or saposin C
[11] = molecular target: T1, N370D GCase; assay: Enzyme activation by TC or saposin C
[12] = molecular target: T4, N370E GCase; assay: Enzyme activation by TC or saposin C
[13] = molecular target: T5, N370Q GCase; assay: Enzyme activation by TC or saposin C
[14] = molecular target: wild-type GCase (Homo sapiens, UniProt P04062); details: azide at 1:4 molar ratio enzyme to azide; DNPG
Sequence of wild-type GCase (P04062 40-536): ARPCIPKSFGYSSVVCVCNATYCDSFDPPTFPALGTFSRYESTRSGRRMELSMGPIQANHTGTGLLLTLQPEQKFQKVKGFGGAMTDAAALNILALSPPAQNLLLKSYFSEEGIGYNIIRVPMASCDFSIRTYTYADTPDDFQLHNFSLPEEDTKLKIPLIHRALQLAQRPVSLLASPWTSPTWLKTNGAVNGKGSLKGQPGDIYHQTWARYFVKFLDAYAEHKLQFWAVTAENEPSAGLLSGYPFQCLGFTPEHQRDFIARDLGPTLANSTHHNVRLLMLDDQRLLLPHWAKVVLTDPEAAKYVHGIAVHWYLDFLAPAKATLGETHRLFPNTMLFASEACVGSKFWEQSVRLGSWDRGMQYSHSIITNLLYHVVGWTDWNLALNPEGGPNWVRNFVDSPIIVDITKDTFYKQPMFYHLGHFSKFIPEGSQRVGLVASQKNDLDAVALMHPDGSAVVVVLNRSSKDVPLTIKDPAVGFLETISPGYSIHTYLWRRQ

[15] = TC 0 to 8 mM, Triton X-100 4 mM, pH 5.6
[16] = in combination with 0.5 μM BPS, pH 5.5

IC50 [1]: 72 ± 2 µM | IC50 [2]: 251 ± 29 µM | IC50 [3]: 73 ± 3 µM | IC50 [4]: 78 ± 4 µM | IC50 [5]: 75 ± 2.5 µM
Molecule: O[C@H]1[C@H](O)[C@@H](O)[C@@H]2O[C@@H]2[C@@H]1O (racemic) [Conduritol B Epoxide, conduritol B epoxide]

Molecule: Cc1cc(=O)oc2cc(O[C@@H]3O[C@H](CO)[C@@H](O)[C@H](O)[C@H]3O)ccc12 [4MU-Glc, 4-methylumbelliferyl-β-D-glucoside]
E235G activity toward substrate compared to wild-type enzyme [6]: less than 0.05% | Km [7]: 2000 ± 500 µM

Molecule: O=[N+]([O-])c1ccc(O[C@@H]2O[C@H](CO)[C@@H](O)[C@H](O)[C@H]2O)c([N+](=O)[O-])c1 [DNPG, 2,4-dinitrophenyl-β-D-glucoside]
E235G activity toward substrate compared to wild-type enzyme [6]: ~ 2% | Km [8]: 108 ± 17 µM

Molecule: C[C@H](CCC(=O)NCCS(=O)(=O)O)[C@H]1CC[C@H]2[C@@H]3[C@H](O)C[C@@H]4C[C@H](O)CC[C@]4(C)[C@H]3C[C@H](O)[C@]12C [TC, Sodium taurocholate]
fold activation by TC ([9]; TC ≥ 4 mM, Triton X-100 4 mM, pH 5.6): ~ 35 fold | fold activation by TC ([10]; wild-type, TC 0 to 8 mM, Triton X-100 4 mM, pH 5.6): ~ 25 fold | fold activation by TC [11, 15]: ~ 22 fold | fold activation by TC [12, 15]: ~ 8 fold | fold activation by TC [13, 15]: ~ 1.5 fold

Molecule: [N-]=[N+]=[N-].[Na+] [azide, sodium azide]
hydrolytic rate of 2,4-DNP-β-glucose by E235G relative to wild-type ([6]; 10 μM azide (Fig. 6A)): 95% | hydrolytic rate of DNPG by E235G relative to wild-type enzyme ([6]; 1:4 molar ratio of enzyme to azide): ~ 90% | effect of azide on wild-type enzyme activity [14]: no effect

Molecule: O=[N+]([O-])c1ccccc1O[C@@H]1O[C@H](CO)[C@H](O)[C@H](O)[C@H]1O [o-NPG, o-nitrophenyl-β-glucose]
E235G activity toward substrate compared to wild-type enzyme [6]: less than 0.05%

Molecule: O=[N+]([O-])c1ccc(O[C@@H]2O[C@H](CO)[C@H](O)[C@H](O)[C@H]2O)cc1 [p-NPG, p-nitrophenyl-β-glucose]
E235G activity toward substrate compared to wild-type enzyme [6]: less than 0.05%

fold enhancement by saposin C [9, 16]: ~ 2.4 fold | fold enhancement by saposin C ([10]; N370 (WT), in combination with 0.5 μM BPS, pH 5.5): ~ 3.5 fold | fold enhancement by saposin C [11, 16]: 1.8 fold | fold enhancement by saposin C [12, 16]: 1.8 fold | enhancement by saposin C [13, 16]: no effect
B1: saposin C: protein cofactor of GCase for optimal hydrolytic activity (protein, UniProt P07602 311-390, looked up)
Saposin-C: SDVYCEVCEFLVKEVTKLIDNNKTEKEILDAFDKMCSKLPKSLSEECQEVVDTYGSSILSILLEEVSPELVCSMLHLCSG
modifications: Saposin-C
